For 33 compounds, IC50 and solubility results are on record in patent publication US20220380319A1 (Bial - R&D Investments, S.A., priority 2019, published 2022).

One data set addresses T1, acid ceramidase (Homo sapiens, UniProt Q13510).
T1 construct: Cell lysates overexpressing acid ceramidase were used as the enzyme source; expressed in transfected cells
T1 sequence (Q13510 22-395): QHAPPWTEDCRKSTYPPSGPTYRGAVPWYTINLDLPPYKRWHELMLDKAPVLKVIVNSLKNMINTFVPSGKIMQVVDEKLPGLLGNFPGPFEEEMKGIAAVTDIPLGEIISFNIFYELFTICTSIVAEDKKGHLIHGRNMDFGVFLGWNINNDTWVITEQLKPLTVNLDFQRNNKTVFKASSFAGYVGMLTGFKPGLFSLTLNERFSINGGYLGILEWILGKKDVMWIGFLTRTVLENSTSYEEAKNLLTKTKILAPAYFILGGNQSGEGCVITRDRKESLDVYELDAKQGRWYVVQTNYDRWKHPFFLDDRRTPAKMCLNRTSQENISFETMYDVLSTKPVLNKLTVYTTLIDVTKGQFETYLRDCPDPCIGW
Briefly: Acid ceramidase inhibition, biochemical fluorescent assay with cell lysates overexpressing acid ceramidase, substrate Rbm14-12. Conditions: substrate Rbm14-12 6.3 μM. The gist of the method:
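IC50 derived by four-parameter fitting of fluorescence (ex360 nm, em446 nm) produced after 1 hr in methanol/NaIO4/glycine stop buffer, pH 10.6. Reaction: 6.3 μM Rbm14-12, 1 hr RT, following 1 hr RT compound preincubation with 10 μg overexpressing-cell lysate protein in pH 4.5 NaAC/NaCl buffer.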

Data set [1] is described as follows: Compound solubility in water.
Where [2] appears, read: pH 4.5, 1 hr preincubation at RT.

Values after ≈ are worked out from the molar mass of the structure shown.

As for `COc1nc2cc(-c3cncnc3)ccc2n1C(=O)NC1CCCCC1` [Example 111b, N-cyclohexyl-2-methoxy-5-(pyrimidin-5-yl)-1H-benzo[d]imidazole-1-carboxamide], the IC50 against acid ceramidase (setting [2]) is under 200 nM. The amount in solution in data set [1] (solubility) came to 22 µg/mL (≈ 62.6 µM).
Regarding `COc1nc2ccc(N3CCOCC3)cc2n1C(=O)NCCCc1ccc(F)cc1F` [Example 224a, N-(3-(2,4-Difluorophenyl)propyl)-2-methoxy-6-morpholino-1H-benzo[d]imidazole-1-carboxamide], on acid ceramidase (pH 4.5), the IC50 was under 200 nM. In addition, in data set [1], the solubility stood at 4 µg/mL (≈ 9.29 µM).
With `CC(C)CCNC(=O)n1cnc2c(N3CCN(C)CC3)cccc21` [Example 119, N-iso-Pentyl-4-(4-methylpiperazin-1-yl)-1H-benzo[d]imidazole-1-carboxamide], the IC50 at acid ceramidase (setting [2]) was in the range of 200 to 1000 nM. Further, the concentration in solution in data set [1] (solubility) was 23 µg/mL (≈ 69.8 µM).
In the case of `COCCOc1nc2ccc(N3CCOCC3)cc2n1C(=O)NCCCc1ccccc1` [Example 190b, 2-(2-methoxyethoxy)-6-morpholino-N-(3-phenylpropyl)-1H-benzo[d]imidazole-1-carboxamide], at acid ceramidase (pH 4.5), the IC50 is under 200 nM. In data set [1], this compound showed a solubility of 16 µg/mL (≈ 36.5 µM).
The matching figures for `CN1CC2CC1CN2c1cccc2c1ncn2C(=O)NCCOc1ccccc1` (stereo not drawn) [Example 295, 4-(5-Methyl-2,5-diazabicyclo[2.2.1]heptan-2-yl)-N-(2-phenoxyethyl)-1H-benzo[d]imidazole-1-carboxamide]: under 200 nM and 33 µg/mL (≈ 84.3 µM).
On the same counts, the results for `CC(C)CCNC(=O)n1cnc2c(N3CCN4CCOC[C@H]4C3)cccc21` [Example 199, (R)-4-(Hexahydropyrazino[2,1-c][1,4]oxazin-8(1H)-yl)-N-isopentyl-1H-benzo[d]imidazole-1-carboxamide] are over 1000 nM and 31 µg/mL (≈ 83.4 µM).
`COc1nc2c(C#N)cccc2n1C(=O)NCCCCc1ccccc1` [Example 138, 4-Cyano-2-methoxy-N-(4-phenylbutyl)-1H-benzo[d]imidazole-1-carboxamide] had an IC50 on acid ceramidase (setting [2]) of under 200 nM. The compound also displayed a solubility in data set [1] of 0.3 µg/mL (≈ 0.861 µM).
The compound `O=C(NCCc1cccnc1)n1cnc2ccccc21` [Example 22, N-(2-(Pyridin-3-yl)ethyl)-1H-benzo[d]imidazole-1-carboxamide] had an IC50 at acid ceramidase (setting [2]) of 200 to 1000 nM. In addition, the concentration in solution in data set [1] (solubility) came to 12.9 µg/mL (≈ 48.4 µM).
`COc1nc2cc(N3CCOCC3)ccc2n1C(=O)NCC1(CC2CC2)CC1` [Example 229b, N-((1-(cyclopropylmethyl)cyclopropyl)methyl)-2-methoxy-5-morpholino-1H-benzo[d]imidazole-1-carboxamide] came in with an IC50 at acid ceramidase (pH 4.5) of under 200 nM. Moreover, the solubility in data set [1] was 9 µg/mL (≈ 23.4 µM).
Regarding `Cc1cc(C2CCN(C)CC2)c2ncn(C(=O)NCCC(C)C)c2c1` [Example 112a], the IC50 at acid ceramidase (setting [2]) is 200 to 1000 nM. This compound also registered a solubility in data set [1] of 22.9 µg/mL (≈ 66.9 µM).
Regarding `CN1CCN(c2cccc3c2ncn3C(=O)NCC#CCC2(C(F)(F)F)CC2)CC1` [Example 285, 4-(4-Methylpiperazin-1-yl)-N-(4-(1-(trifluoromethyl)cyclopropyl)but-2-yn-1-yl)-1H-benzo[d]imidazole-1-carboxamide], the IC50 on acid ceramidase (pH 4.5) is under 200 nM. The solubility in data set [1] came to 22 µg/mL (≈ 52.4 µM).
Compound `CC(C)CCNC(=O)n1cnc2cc(-c3cncnc3)ccc21` [Example 103b, N-iso-pentyl-5-(pyrimidin-5-yl)-1H-benzo[d]imidazole-1-carboxamide] came in with an IC50 on acid ceramidase (setting [2]) of under 200 nM. In data set [1], this compound had a solubility of 11.9 µg/mL (≈ 38.5 µM).
On the same counts, the results for `[2H]c1nc2ccccc2n1C(=O)NCCc1ccccc1` [Example 128, N-Phenethyl-1H-benzo[d]imidazole-2-d-1-carboxamide] are under 200 nM and 15 µg/mL (≈ 56.3 µM).
As for `CC(C)(C)CCNC(=O)n1cnc2c(N3CCN(C4CC4)CC3)cccc21` [Example 185, 4-(4-Cyclopropylpiperazin-1-yl)-N-(3,3-dimethylbutyl)-1H-benzo[d]imidazole-1-carboxamide], the IC50 on acid ceramidase (pH 4.5) is 200 to 1000 nM. In data set [1], the solubility is 2 µg/mL (≈ 5.41 µM).
On the same counts, the results for `CC(C)CCNC(=O)n1cnc2c(N3CCOC(C)(C)C3)cccc21` [Example 170, 4-(2,2-Dimethylmorpholino)-N-isopentyl-1H-benzo[d]imidazole-1-carboxamide] are 200 to 1000 nM and 14 µg/mL (≈ 40.6 µM).
On the same counts, the results for `CC(C)CCNC(=O)n1cnc2c(N3CCOC[C@@H]3C)cccc21` [Example 169, (S)—N-iso-Pentyl-4-(3-methylmorpholino)-1H-benzo[d]imidazole-1-carboxamide] are 200 to 1000 nM and 23 µg/mL (≈ 69.6 µM).
Consider `COc1cc2c(cc1N1CCOCC1)ncn2C(=O)NCCc1ccccc1` [Example 38b, 6-methoxy-5-morpholino-N-phenethyl-1H-benzo[d]imidazole-1-carboxamide], for which, at acid ceramidase (setting [2]), the IC50 was under 200 nM. Also, the solubility in data set [1] came out at 18.3 µg/mL (≈ 48.1 µM).
Turning to `CN1CCN(c2cccc3c2ncn3C(=O)NCCOc2ccccc2)CC1` [Example 257, 4-(4-Methylpiperazin-1-yl)-N-(2-phenoxyethyl)-1H-benzo[d]imidazole-1-carboxamide], the IC50 at acid ceramidase (pH 4.5) is under 200 nM. In data set [1], this compound displayed a solubility of 19 µg/mL (≈ 50.1 µM).
On to `O=C(NCCc1ccccc1)n1cnc2c(F)cccc21` [Example 64, 4-Fluoro-N-phenethyl-1H-benzo[d]imidazole-1-carboxamide], for which the IC50 against acid ceramidase (setting [2]) was under 200 nM. Further, in data set [1], the concentration in solution (solubility) came to 3.6 µg/mL (≈ 12.7 µM).
As for `COc1nc2cc(N3CCOCC3)ccc2n1C(=O)NCCCc1ccc(F)cc1` [Example 221b], the IC50 on acid ceramidase (pH 4.5) was under 200 nM. In data set [1], this compound registered a solubility of 15 µg/mL (≈ 36.4 µM).
At acid ceramidase (setting [2]), `CCCCNC(=O)n1cnc2ccc(N3CCC(N4CCOCC4)CC3)cc21` [Example 101a, N-Butyl-6-(4-morpholinopiperidin-1-yl)-1H-benzo[d]imidazole-1-carboxamide] registered an IC50 of under 200 nM. Moreover, the solubility in data set [1] worked out at 26.7 µg/mL (≈ 69.3 µM).
On acid ceramidase (pH 4.5), `COc1nc2ccc(N3CCOCC3)cc2n1C(=O)NCCCOC(F)(F)F` [Example 233a, 2-Methoxy-6-morpholino-N-(3-(trifluoromethoxy)propyl)-1H-benzo[d]imidazole-1-carboxamide] returned an IC50 of 200 to 1000 nM. Further, the concentration in solution in data set [1] (solubility) was 30 µg/mL (≈ 74.6 µM).
As for `COc1nc2cc(N3CCOCC3)ccc2n1C(=O)NCCCc1ccc(F)nc1` [Example 232b, N-(3-(6-fluoropyridin-3-yl)propyl)-2-methoxy-5-morpholino-1H-benzo[d]imidazole-1-carboxamide], the IC50 against acid ceramidase (pH 4.5) was over 1000 nM. In addition, the solubility in data set [1] turned out to be 25 µg/mL (≈ 60.5 µM).
The matching figures for `CC(C)C#CCCNC(=O)n1cnc2c(N3CCN(C)CC3)cccc21` [Example 303, N-(5-Methylhex-3-yn-1-yl)-4-(4-methylpiperazin-1-yl)-1H-benzo[d]imidazole-1-carboxamide]: 200 to 1000 nM and 28 µg/mL (≈ 79.2 µM).
The matching figures for `COc1nc2cc(N3[C@@H]4CC[C@H]3COC4)ccc2n1C(=O)NCCCc1ccccc1` [Example 237a, 5-((1R,5S)-3-Oxa-8-azabicyclo[3.2.1]octan-8-yl)-2-methoxy-N-(3-phenylpropyl)-1H-benzo[d]imidazole-1-carboxamide]: under 200 nM and 1 µg/mL (≈ 2.38 µM).
The matching figures for `COc1nc2ccc(C3CCN(C)CC3)cc2n1C(=O)NCCCc1ccccc1` [Example 195b, 2-methoxy-6-(1-methylpiperidin-4-yl)-N-(3-phenylpropyl)-1H-benzo[d]imidazole-1-carboxamide]: over 1000 nM and 39 µg/mL (≈ 95.9 µM).
On acid ceramidase (pH 4.5), `CC(C)C#CCNC(=O)n1cnc2c(N3CCN4CCCC4C3)cccc21` (stereo not drawn) [Example 302, 4-(Hexahydropyrrolo[1,2-a]pyrazin-2(1H)-yl)-N-(4-methylpent-2-yn-1-yl)-1H-benzo[d]imidazole-1-carboxamide] showed an IC50 of under 200 nM. The solubility in data set [1] amounted to 22 µg/mL (≈ 60.2 µM).
Compound `COc1nc2cc(N3CCOCC3)c(F)cc2n1C(=O)NCCCCc1ccccc1` [Example 215, 6-Fluoro-2-methoxy-5-morpholino-N-(4-phenylbutyl)-1H-benzo[d]imidazole-1-carboxamide] came in with an IC50 on acid ceramidase (pH 4.5) of under 200 nM. This compound also came in with a solubility in data set [1] of 0.3 µg/mL (≈ 0.703 µM).
On the same counts, the results for `COC1(C)CN(c2cccc3c2ncn3C(=O)NCCC(C)C)C1` [Example 177, N-iso-Pentyl-4-(3-methoxy-3-methylazetidin-1-yl)-1H-benzo[d]imidazole-1-carboxamide] are 200 to 1000 nM and 13 µg/mL (≈ 39.3 µM).
On the same counts, the results for `CC(C)CC1(CNC(=O)n2cnc3c(N4CCOCC4)cccc32)CC1` [Example 227, N-((1-iso-Butylcyclopropyl)methyl)-4-morpholino-1H-benzo[d]imidazole-1-carboxamide] are under 200 nM and 16 µg/mL (≈ 44.9 µM).
The compound `O=C(NCCCCc1ccccc1)n1cnc2c(N3CCOCC3)cccc21` [Example 137, 4-Morpholino-N-(4-phenylbutyl)-1H-benzo[d]imidazole-1-carboxamide] displayed an IC50 at acid ceramidase (setting [2]) of under 200 nM. In data set [1], this compound yielded a solubility of 0.6 µg/mL (≈ 1.59 µM).
`CCCCNC(=O)n1c(OC(C)C)nc2c(OC)cccc21` [Example 97a] came in with an IC50 against acid ceramidase (setting [2]) of 200 to 1000 nM. Also, the concentration in solution in data set [1] (solubility) was 18 µg/mL (≈ 58.9 µM).
The compound `CN1CCN(C2CN(c3cccc4c3ncn4C(=O)NCCc3ccccc3)C2)CC1` [Example 349, 4-(3-(4-Methylpiperazin-1-yl)azetidin-1-yl)-N-phenethyl-1H-benzo[d]imidazole-1-carboxamide] registered an IC50 against acid ceramidase (setting [2]) of 200 to 1000 nM. Further, the solubility in data set [1] turned out to be 37 µg/mL (≈ 88.4 µM).

As usually defined, the IC50 is the point on the concentration scale where inhibition reaches its midpoint. A high value points to a need for much substance. As usually defined, the solubility is how much of the substance goes into solution per volume. A low value points to a poorly soluble substance.
